The values below come from ChEMBL document CHEMBL4359850, “Synthesis, in vivo and in silico anticonvulsant activity studies of new derivatives of 2-(2,4-dioxo-1,4-dihydroquinazolin-3(2H)-yl)acetamide” (Eur J Med Chem, 2019).

Data set [1] deals with Mus musculus. Description: Anticonvulsive activity in pentylenetetrazole-induced seizure albino mouse model assessed as latecy time at 100 mg/kg, ig administered 30 mins prior to pentylenetetrazole challenge and mesured for 60 mins (reference value: 5.79 +/- 0.58 min). Format: functional.
Data set [2] relates to Mus musculus. The experiment in a line: Anticonvulsive activity in pentylenetetrazole-induced seizure albino mouse model assessed as number of clonic and tonic convulsion at 100 mg/kg, ig administered 30 mins prior to pentylenetetrazole challenge and mesured per animal for 60 mins (reference value: 3.58 +/- 0.42). Format: functional.
The subject of data set [3] is Mus musculus. The experiment in a line: Anticonvulsive activity in pentylenetetrazole-induced seizure albino mouse model assessed as proportion of animals with clonic convulsion at 100 mg/kg, ig administered 30 mins prior to pentylenetetrazole challenge and mesured for 60 mins (reference value: 100 %). Format: functional.
Data set [4] deals with Mus musculus. The experiment in a line: Anticonvulsive activity in pentylenetetrazole-induced seizure albino mouse model assessed as proportion of animals with tonic convulsion at 100 mg/kg, ig administered 30 mins prior to pentylenetetrazole challenge and mesured for 60 mins (reference value: 100%). Format: functional.
In data set [5] the test system is Mus musculus. The experiment in a line: Anticonvulsive activity in albino mouse assessed as protection against pentylenetetrazole-induced seizure by measuring severity of convulsion at 100 mg/kg, ig administered 30 mins prior to pentylenetetrazole challenge and mesured for 60 mins (reference value: 5.83 +/- 0.17). In kind it is functional.
For data set [6], the system named is Mus musculus. The experiment in a line: Anticonvulsive activity in pentylenetetrazole-induced seizure albino mouse model assessed as duration time of convulsion period at 100 mg/kg, ig administered 30 mins prior to pentylenetetrazole challenge and mesured for 60 mins (reference value: 12 +/- 1.34 min). In kind it is functional.
The subject of data set [7] is Mus musculus. Description: Anticonvulsive activity in pentylenetetrazole-induced seizure albino mouse model assessed as lifetime of animal to death at 100 mg/kg, ig administered 30 mins prior to pentylenetetrazole challenge and mesured for 60 mins (reference value: 17.45 +/- 1.85 min). Format: functional.
Data set [8] relates to Mus musculus. The experiment in a line: Anticonvulsive activity in pentylenetetrazole-induced seizure albino mouse model assessed as lethality at 100 mg/kg, ig administered 30 mins prior to pentylenetetrazole challenge and mesured for 60 mins (reference value: 91.7%). Format: functional.
A short description of data set [9]: Toxicity in albino mouse assessed as motor coordination impairment by measuring animal fall-off from rod before 1 min at 100 mg/kg, ig administered 30 mins prior to test by rotarod test (reference value: 17%). Format: organism-based. To be noted: in vivo, po. (In general: Falling from the rotarod earlier than controls is read as motor impairment.)
Data set [10] is described as follows: Toxicity in albino mouse assessed as motor coordination impairment by measuring animal fall-off from rod before 2 mins at 100 mg/kg, ig administered 30 mins prior to test by rotarod test (reference value: 33%). Format: organism-based. To be noted: in vivo, po.
Data set [11] can be described thus: Toxicity in albino mouse assessed as motor coordination impairment by measuring animal fall-off from rod before 3 mins at 100 mg/kg, ig administered 30 mins prior to test by rotarod test (reference value: 33%). To be noted: in vivo, po, 0.05 h. In kind it is organism-based.
A short description of data set [12]: Toxicity in albino mouse assessed as motor coordination impairment by measuring animal fall-off from rod before 5 mins at 100 mg/kg, ig administered 30 mins prior to test by rotarod test (reference value: 50%). Format: organism-based. As to conditions: in vivo, po.

On to `O=C(Cn1c(=O)[nH]c2ccccc2c1=O)NCCc1ccccc1`, for which the figures for the Time in data set [1], in data set [6] and in data set [7] were 11.43 min, 9.98 min and 17.79 min, respectively. Further, the Activity in [2] turned out to be 1.8; in data set [3], 100%; in [4], 100%; in data set [5], 5.6; in data set [8] it was 80%; in [9] it was 33%. Further, the figures for the Activity in data set [10], in data set [11] and in data set [12] were 50%, 50% and 67%, respectively.
Consider `O=C(Cn1c(=O)[nH]c2ccccc2c1=O)NCCCc1ccccc1`, for which the Time came out at 15.51 min in data set [1], 3.05 min in data set [6] and 12.16 min in data set [7]. In addition, the Activity in data set [2] came out at 1.2; in [3], 80%; in data set [4] it was 80%; in data set [5], 4; in [8] it was 40%; in [9], 17%. For the same molecule, the results for the Activity in data set [10], in data set [11] and in data set [12] were 33%, 50% and 50%, respectively.
Turning to `O=C(Cn1c(=O)[nH]c2ccccc2c1=O)Nc1ccccc1`, the Time in [1] is listed as 10.57 min; in data set [6] it was 1.24 min; in [7] it was 7.14 min. The Activity came out at 1.22 in data set [2]; 100% in [3]; 55.5% in data set [4]; 4.22 in data set [5]; 33.3% in [8]; 17% in data set [9]. Moreover, the Activity in [10] is 33%; in data set [11], 50%; in [12] it was 67%.
On to `CCCNC(=O)Cn1c(=O)[nH]c2ccccc2c1=O`, for which the Time in data set [1] is given as 7.5 min; in [6], 2.2 min; in data set [7], 6.89 min. Besides, the Activity in data set [2] was determined as 1.4; in data set [3] it was 100%; in data set [4] it was 100%; in [5], 5; in [8] it was 40%; in [9], 33%. For the same molecule, the Activity in data set [10], in data set [11] and in data set [12] was 50% each time.
For `C=CCNC(=O)Cn1c(=O)[nH]c2ccccc2c1=O`, the Time is listed as 6.6 min in [1], 9.8 min in data set [6] and 16.95 min in [7]. For the same molecule, the Activity in [2] amounted to 2.2; in data set [3], 100%; in data set [4], 80%; in data set [5], 5; in data set [8], 60%; in data set [9], 33%. Besides, the Activity in data set [10] amounted to 50%; in data set [11], 50%; in data set [12], 67%.
Turning to `O=C(Cn1c(=O)[nH]c2ccccc2c1=O)NC1CCCCC1`, the results for the Time in data set [1], in data set [6] and in [7] were 3.8 min, 13.11 min and 11.53 min, respectively. In addition, the Activity in [2] was determined as 3.2; in data set [3], 100%; in data set [4], 100%; in [5], 5.6; in data set [8], 80%; in data set [9] it was 17%. Besides, the figures for the Activity in data set [10], in data set [11] and in data set [12] were 33%, 50% and 50%, respectively.
As for `O=C(Cn1c(=O)[nH]c2ccccc2c1=O)NCc1ccccc1`, the Time turned out to be 4.96 min in data set [1], 14.05 min in data set [6] and 17.5 min in [7]. Besides, the Activity was determined as 3 in [2]; 100% in data set [3]; 100% in [4]; 5.6 in [5]; 80% in [8]; 17% in [9]. Further, the results for the Activity in data set [10], in data set [11] and in [12] were 33%, 50% and 50%, respectively.
